# Assay results published in ChEMBL document CHEMBL3885881, “DrugMatrix”.
# Species: Rattus norvegicus
# Assay: DrugMatrix - Regimen: Daily Repeat
# Assay type: toxicity, organism-based, Sprague-Dawley
# Parameters: regimen Daily Repeat, gender Male, age 6-8 weeks
# Settings: in vivo, po, route oral GAVAGE, vehicle 100 % WATER; for ABSOLUTE BASOPHIL / ABSOLUTE EOSINOPHIL / ABSOLUTE LYMPHOCYTE / ABSOLUTE MONOCYTE / ABSOLUTE SEGMENTED NEUTROPHIL / BASOPHIL / EOSINOPHIL / ERYTHROCYTE COUNT / HEMATOCRIT / HEMOGLOBIN / LEUKOCYTE COUNT / LYMPHOCYTE / MEAN CORPUSCULAR HEMOGLOBIN / MEAN CORPUSCULAR HEMOGLOBIN CONCENTRATION / MEAN CORPUSCULAR VOLUME / MONOCYTE / NEUTROPHIL / NUCLEATED RED BLOOD CELLS / PLATELET COUNT: tissue Blood; for ALANINE AMINOTRANSFERASE / ALBUMIN / ALKALINE PHOSPHATASE / ASPARTATE AMINOTRANSFERASE / BLOOD UREA NITROGEN / CARBON DIOXIDE / CHLORIDE / CHOLESTEROL / CREATINE PHOSPHOKINASE / CREATININE / GLUCOSE / LACTATE DEHYDROGENASE / LIPASE / PHOSPHORUS / POTASSIUM / SODIUM / TOTAL BILIRUBIN / TOTAL PROTEIN / URIC ACID: tissue Plasma
# [1] = 0 mg/kg, 72 h, dose level Control, time 3 day
# [2] = 0 mg/kg, 120 h, dose level Control, time 5 day
# [3] = 14 mg/kg, 72 h, dose level Low, time 3 day
structure (smiles),measurement,setting,value
C[C@H]1c2cccc(O)c2C(=O)C2=C(O)[C@]3(O)C(=O)C(C(N)=O)=C(O)[C@@H](N(C)C)[C@@H]3[C@@H](O)[C@@H]21.O [DOXYCYCLINE],ABSOLUTE BASOPHIL,[1],0 CELLS/uL
same,ABSOLUTE EOSINOPHIL,[1],86.33 CELLS/uL
same,ABSOLUTE LYMPHOCYTE,[1],12090.17 CELLS/uL
same,ABSOLUTE MONOCYTE,[1],166.67 CELLS/uL
same,ABSOLUTE SEGMENTED NEUTROPHIL,[1],1090.17 CELLS/uL
same,BASOPHIL,[1],0%
same,EOSINOPHIL,[1],0.67%
same,ERYTHROCYTE COUNT,[1],5.57 x10E6/uL
same,HEMATOCRIT,[1],35.33%
same,HEMOGLOBIN,[1],13.83 G/DL
same,LEUKOCYTE COUNT,[1],13.43 x10E3/uL
same,LYMPHOCYTE,[1],89.83%
same,MEAN CORPUSCULAR HEMOGLOBIN,[1],24.88 pg
same,MEAN CORPUSCULAR HEMOGLOBIN CONCENTRATION,[1],39.15 G/DL
same,MEAN CORPUSCULAR VOLUME,[1],63.52 fL
same,MONOCYTE,[1],1.17%
same,NEUTROPHIL,[1],8.33%
same,NUCLEATED RED BLOOD CELLS,[1],0 /100WBC
same,PLATELET COUNT,[1],1181.33 x10E3/uL
same,ALANINE AMINOTRANSFERASE,[1],48.33 u/L
same,ALBUMIN,[1],4.1 G/DL
same,ALKALINE PHOSPHATASE,[1],395 u/L
same,ASPARTATE AMINOTRANSFERASE,[1],81.83 u/L
same,BLOOD UREA NITROGEN,[1],15.83 mg/dL
same,CARBON DIOXIDE,[1],24.17 mmol/L
same,CHLORIDE,[1],103.83 MEQ/L
same,CHOLESTEROL,[1],63.67 mg/dL
same,CREATINE PHOSPHOKINASE,[1],372.83 u/L
same,CREATININE,[1],0.18 mg/dL
same,GLUCOSE,[1],173.83 mg/dL
same,LACTATE DEHYDROGENASE,[1],188.33 u/L
same,LIPASE,[1],9.5 u/L
same,PHOSPHORUS,[1],11.95 mg/dL
same,POTASSIUM,[1],5.99 MEQ/L
same,SODIUM,[1],144.43 MEQ/L
same,TOTAL BILIRUBIN,[1],0.15 mg/dL
same,TOTAL PROTEIN,[1],5.95 G/DL
same,URIC ACID,[1],1.82 mg/dL
same,ABSOLUTE BASOPHIL,[2],0 CELLS/uL
same,ABSOLUTE EOSINOPHIL,[2],26.67 CELLS/uL
same,ABSOLUTE LYMPHOCYTE,[2],7583.83 CELLS/uL
same,ABSOLUTE MONOCYTE,[2],131.33 CELLS/uL
same,ABSOLUTE SEGMENTED NEUTROPHIL,[2],674.83 CELLS/uL
same,BASOPHIL,[2],0%
same,EOSINOPHIL,[2],0.33%
same,ERYTHROCYTE COUNT,[2],5.78 x10E6/uL
same,HEMATOCRIT,[2],36.48%
same,HEMOGLOBIN,[2],14.03 G/DL
same,LEUKOCYTE COUNT,[2],8.42 x10E3/uL
same,LYMPHOCYTE,[2],89.83%
same,MEAN CORPUSCULAR HEMOGLOBIN,[2],24.3 pg
same,MEAN CORPUSCULAR HEMOGLOBIN CONCENTRATION,[2],38.52 G/DL
same,MEAN CORPUSCULAR VOLUME,[2],63.15 fL
same,MONOCYTE,[2],1.67%
same,NEUTROPHIL,[2],8.17%
same,NUCLEATED RED BLOOD CELLS,[2],0 /100WBC
same,PLATELET COUNT,[2],1186.67 x10E3/uL
same,ALANINE AMINOTRANSFERASE,[2],50.17 u/L
same,ALBUMIN,[2],4.07 G/DL
same,ALKALINE PHOSPHATASE,[2],367.5 u/L
same,ASPARTATE AMINOTRANSFERASE,[2],81.67 u/L
same,BLOOD UREA NITROGEN,[2],16.17 mg/dL
same,CARBON DIOXIDE,[2],32.33 mmol/L
same,CHLORIDE,[2],101.5 MEQ/L
same,CHOLESTEROL,[2],65.33 mg/dL
same,CREATINE PHOSPHOKINASE,[2],255.33 u/L
same,CREATININE,[2],0.17 mg/dL
same,GLUCOSE,[2],139.33 mg/dL
same,LACTATE DEHYDROGENASE,[2],95 u/L
same,LIPASE,[2],10.5 u/L
same,PHOSPHORUS,[2],10.38 mg/dL
same,POTASSIUM,[2],6.11 MEQ/L
same,SODIUM,[2],145.55 MEQ/L
same,TOTAL BILIRUBIN,[2],0.17 mg/dL
same,TOTAL PROTEIN,[2],5.98 G/DL
same,URIC ACID,[2],0.93 mg/dL
same,ABSOLUTE BASOPHIL,[3],0 CELLS/uL
same,ABSOLUTE EOSINOPHIL,[3],116.33 CELLS/uL
same,ABSOLUTE LYMPHOCYTE,[3],13980 CELLS/uL
same,ABSOLUTE MONOCYTE,[3],147.67 CELLS/uL
same,ABSOLUTE SEGMENTED NEUTROPHIL,[3],1122.67 CELLS/uL
same,BASOPHIL,[3],0%
same,EOSINOPHIL,[3],0.67%
same,ERYTHROCYTE COUNT,[3],5.35 x10E6/uL
same,HEMATOCRIT,[3],33.67%
same,HEMOGLOBIN,[3],13.37 G/DL
same,LEUKOCYTE COUNT,[3],15.37 x10E3/uL
same,LYMPHOCYTE,[3],90.33%
same,MEAN CORPUSCULAR HEMOGLOBIN,[3],25 pg
same,MEAN CORPUSCULAR HEMOGLOBIN CONCENTRATION,[3],39.73 G/DL
same,MEAN CORPUSCULAR VOLUME,[3],62.97 fL
same,MONOCYTE,[3],1%
same,NEUTROPHIL,[3],8%
same,NUCLEATED RED BLOOD CELLS,[3],0 /100WBC
same,PLATELET COUNT,[3],1183 x10E3/uL
same,ALANINE AMINOTRANSFERASE,[3],54 u/L
same,ALBUMIN,[3],3.97 G/DL
same,ALKALINE PHOSPHATASE,[3],325.67 u/L
same,ASPARTATE AMINOTRANSFERASE,[3],90 u/L
same,BLOOD UREA NITROGEN,[3],18 mg/dL
same,CARBON DIOXIDE,[3],24.33 mmol/L
same,CHLORIDE,[3],103.67 MEQ/L
same,CHOLESTEROL,[3],61.33 mg/dL
same,CREATINE PHOSPHOKINASE,[3],372 u/L
same,CREATININE,[3],0.12 mg/dL
same,GLUCOSE,[3],163.33 mg/dL
same,LACTATE DEHYDROGENASE,[3],339 u/L
same,LIPASE,[3],8.67 u/L
same,PHOSPHORUS,[3],11.87 mg/dL
same,POTASSIUM,[3],5.76 MEQ/L
same,SODIUM,[3],143.73 MEQ/L
same,TOTAL BILIRUBIN,[3],0.2 mg/dL
same,TOTAL PROTEIN,[3],5.77 G/DL
same,URIC ACID,[3],1.13 mg/dL
